The values below come from patent US7378080B2, “Methods for identifying compounds for motion sickness, vertigo and other disorders related to balance and the perception of gravity” (Neurosciences Research Foundation, Inc., priority 1999, dated 2008).

The test system of this experiment is Canton-S flies. Briefly: Geotaxis maze assay of Drosophila. Format: in vivo, Drosophila melanogaster. The protocol:
These strains and a standard laboratory wild-type strain (Canton-S, obtained from the Bloomington Drosophila Stock Center, Indiana University at Bloomington) were then tested in a geotaxis maze constructed according to the design of Hirsch (J. Comp. Physiol. Psychol. 52:304-308 (1959)) as modified by McMillan and McGuire (Behav. Genet. 22:557-573 (1992)), shown in FIG. 1. The geotaxis maze was fashioned from plexiglass and the maze chambers were hollowed out as semi-circular depressions in the slab, such that when the two slabs were bolted together a circular tube was formed in maze. This design thus made it possible to observe the entire time course of the assay. Additionally, this maze is easy to clean and standardize. For each strain, a geotaxis score was determined. In separate measurements, twenty to thirty flies of each strain were loaded into a starting tube on the left (see FIG. 1). The maze was set upright in front of a light source on the right, and, after turning on the light, each strain was scored according to the distribution of the flies in the nine collecting tubes on the right. A perfect score for positive geotaxis would be 1, for negative geotaxis, 9, and for an even distribution, 5. The geotaxis measurments were repeated 3-5 times for each strain (see Table 1). […]

`OCCOCCN1CCN(C(c2ccccc2)c2ccc(Cl)cc2)CC1` (centres unmarked) [hydroxyzine]: the “Effect on geotactic behavior (in words)” value (Canton-S flies fed with the histamine receptor antagonist) is recorded as “Extreme negative geotaxis is induced”. For the same compound, the Geotaxis score (wild-type Canton-S flies fed for 2 hr on 20 mg/ml hydroxyzine, score scale 1 = positive geotaxis, 5 = even distribution, 9 = negative geotaxis, N=1 (15-25 flies), untreated Canton-S 5.53) was 8.50.
